Source: US6495580B1, “Compounds, compositions and methods for treating or preventing pneumovirus infection and associated diseases” (ViroPharma Incorporated, priority 1998, dated 2002)
pIC50: −log10 of the molar value. Like-named read-outs stand apart in the source and are kept apart here.

Columns and labels:
Format in all cases: cell-based
normal cells = experiment: MTT cytotoxicity assay; details: highest compound concentration giving optical density ≧75% of control, 68 hours incubation
Experimental: This assay measures cell viability, and therefore cytotoxicity, by quantitatively detecting the in situ reduction of 3-(4,5-dimethylthiazol-2-yl)-2,5-diphenyltetrazolium bromide (MTT) by viable cells. Cells are seeded in 96-well plates in DMEM containing 5% FBS at a density of 4×10^3 cells per well. After incubation for 4 hours at 37° C. and 5% CO2, 2-fold serial dilutions of compound in 1% DMSO (or solvent alone) are added to quadruplicate wells and the plates are incubated for an additional 68 hours at 37° C. and 5% CO2, which is equivalent to 3 to 4 cell doublings. The culture medium is removed, and the cells are treated with 1 mg/ml of MTT in phosphate-buffered saline, pH 7.2 for 4 hours at 37° C. and 5% CO2. After removal of the unreduced MTT, the reduced blue formazan crystals produced by the viable cells are solubilized by the addition of 0.04N HCl in isopropanol. The optical density at 570 nm (OD570) of each well is read using a suitable microplate reader. Cell viability is expressed as the percentage of optical density for compound-treated cells relative to the optical density of solvent alone-treated control wells. The highest compound concentration resulting in an optical density of≧75% of the control is represented as the cellular cytotoxicity value (CC75).

human RSV subtype A = experiment: Cell culture assay for inhibition of pneumovirus replication (protection from virus-induced cytopathic effect), RSV-A
Experimental: (§1) The replication of many viruses may be quantitatively assessed in the laboratory in various cell or tissue culture systems. Such in vitro culture methodologies are available and useable by those skilled in the art for the propagation and quantitative measurement of the replication of pneumoviruses. The following procedure was used for the in vitro quantitative measure of RSV replication.
(§2) Using the procedure described in this example, compounds of the present invention were evaluated for their ability to inhibit the replication of the virus in cell culture. By adding compounds at various concentrations to the culture medium, a dose response effect of the compound on virus replication was determined. A useful quantitative measure of the inhibition of RSV replication in this assay is the concentration of the compound at which virus replication in cell culture is inhibited by 50% in comparison to that observed in the absence of the compound (50% Inhibitory Concentration, IC50). In the case of RSV, IC50 values are defined as the concentration of compound that protected 50% of the cell monolayer. from virus-induced cytopathic effect (syncytia formation).
(§3) Anti-pneumovirus compounds of the invention were screened for antiviral activity against RSV (strain Long) on cultured HEp2 cells. Standard 96-well culture plates were seeded with 4×10^4 HEp2 cells in 200 μL of Minimal Essential Medium with Earles salts (EMEM) supplemented with 10% fetal bovine serum (FBS). Twenty-four to 30 hours later, the cells were infected with a dilution of RSV in Medium 199 (GIBCO/BRL) with 5% FBS that had been titrated to yield>85% destruction of the cell monolayer in 60 hours. After 1 hour at […], compounds were added to wells of the plate in a final DMSO concentration of 0.5% as a series of 10 two-fold dilutions of the compound. Virus control wells (VC, no test compound) and cell culture control wells (CC, no virus, no test compound) were also included on each plate. Plates were incubated in a humidified atmosphere at 37° C. and 5% carbon dioxide. After 60 hours, 100 μL of a 5% solution of glutaraldehyde in water was added to each well, and the wells were incubated at room temperature for 1 hour. The fixative was removed, and the cells were stained with a 0.1% solution of crystal violet in water for 15-30 minutes. After rinsing and drying the plates, the optical density of the wells was measured at 570 nm (OD570).
(§4) To determine IC50 values for the test compounds,the mean value of the OD570 readings of the virus control wells (VC) on a plate was substracted from the OD570 readings of all wells on that plate. The IC50 values were then calculated according to the following formula:
(§5) IC50=[(Y—B)/(A—B)]×(H—L)+L
(§6) where Y represents the mean OD570 reading of the cell control wells (CC) divided by 2; B represents the mean OD570 reading of wells of the compound dilution nearest to and below Y; A represents the mean OD570 reading of wells of the compound dilution nearest to and above Y; L represents the compound concentration at B; and H represents the compound concentration at A.
(§7) A similar assay is useful for various strains of human RSV, including subtype A and subtype B viruses, as well as other pneumoviruses.

human RSV subtype B = experiment: Cell culture assay for inhibition of pneumovirus replication, RSV-B; details: protection from cytopathic effect
Experimental: as §1, §2, §3, §4, §5, §6, §7

bovine RSV = experiment: Cell culture assay for inhibition of pneumovirus replication, BRSV; details: protection from cytopathic effect
Experimental: as §1, §2, §3, §4, §5, §6, §7

ovine RSV = experiment: Cell culture assay for inhibition of pneumovirus replication, ORSV; details: protection from cytopathic effect
Experimental: as §1, §2, §3, §4, §5, §6, §7

goat RSV = experiment: Cell culture assay for inhibition of pneumovirus replication, GRSV; details: protection from cytopathic effect
Experimental: as §1, §2
Anti-pneumovirus compounds of the invention were screened for antiviral activity against RSV (strain Long) on cultured HEp2 cells. […] After rinsing and drying the plates, the optical density of the wells was measured at 570 nm (OD570).
To determine IC50 values for the test compounds,the mean value of the OD570 readings of the virus control wells (VC) on a plate was substracted from the OD570 readings of all wells on that plate. The IC50 values were then calculated according to the following formula: […]
as §6, with “A. […]” for “A.”

[1] = Activity against human RSV subtype A (Table 2), values marked 2: protection achieved only 70-90% at highest concentrations tested, read-out: IC50
[2] = human RSV subtype A, concentration protecting 50% of cell monolayer from virus-induced cytopathic effect, HEp2 cells, 60 hours, read-out: IC50 RSV-A
[3] = human respiratory syncytial virus

SMILES | pIC50 (human RSV subtype A; [1]) | pIC50 (human RSV subtype A; [2]) | pIC50 (human RSV subtype B) | pIC50 (bovine RSV) | pIC50 (human RSV subtype A; human respiratory syncytial virus, HEp-2, human RSV subtype A, concentration protecting 50% of cell monolayer from virus-induced cytopathic effect, HEp2 cells, 60 hours, read-out: IC50 RSV-A) | pIC50 (human RSV subtype A; human respiratory syncytial virus, Activity against human RSV subtype A (Table 2), values marked 2: protection achieved only 70-90% at highest concentrations tested, read-out: IC50) | pIC50 (human RSV subtype B; [3]) | pIC50 (ovine RSV; [3]) | pIC50 (bovine RSV; Bovine orthopneumovirus) | CC75 (normal cells) [nM] | pIC50 (goat RSV) | pIC50 (ovine RSV)
COc1ccc(C(c2ccc(C=Nn3nnnc3N)cc2O)c2ccc(C=Nn3nnnc3N)cc2O)cc1 (stereo not drawn) [Example 2, 5,5′-Bis[1-(((5-amino-1H-tetrazolyl)imino)methyl)]-4″-methoxyphenyl-2,2′-benzylidenebisphenol] | 9.00 | 9.00 | 8.10 | 9.00 |  |  |  |  |  | >150000 |  | 
Nc1nncn1N=Cc1ccc(O)c(C(c2ccc(O)cc2)c2cc(C=Nn3cnnc3N)ccc2O)c1 (stereo not drawn) [Example 4, 5,5′-Bis[4-(((3-amino-4H-1,2,4-triazolyl)imino)methyl)]-2,2′,4″-methylidyne trisphenol] | 6.96 | 6.96 | 6.82 | 6.57 |  |  |  |  |  | 18800 |  | 
Nc1ncnn1N=Cc1ccc(O)c(C(c2ccc(O)cc2)c2cc(C=Nn3ncnc3N)ccc2O)c1 (stereo not drawn) [Example 3, 5,5′-Bis[1-(((5-amino-1H-1,2,4 triazolyl)imino)methyl)]-2,2′, 4″t-methylidyne trisphenol] | 7.30 | 7.30 | 6.34 | 8.00 |  |  |  |  |  | 12500 |  | 6.77
Cc1nnnn1/N=C/c1ccc(O)c(C(c2ccc(O)cc2)c2cc(/C=N/n3nnnc3C)ccc2O)c1 [Example 6, 5,5′-Bis[1-(((5-methyl-1H-tetrazolyl)imino)methyl)]-2,2′,4″-methylidynetrisphenol] | 9.00 | 9.00 | 8.70 | 9.00 |  |  |  |  |  | 3100 | 9.00 | 9.00
Nc1nnnn1N=Cc1ccc(O)c(C(c2ccc(O)cc2)c2cc(C=Nn3nnnc3N)ccc2O)c1 (stereo not drawn) [Example 1, 5,5′-Bis[1-(((5-amino-1H-tetrazolyl)imino)methyl)]2,2′,4″-methylidynetrisphenol] | 9.00 | 9.00 | 8.10 | 8.52 |  |  |  |  |  | >12500 | 9.00 | 8.70

The next lines start with results.

pIC50 (human RSV subtype A; [1]) | pIC50 (human RSV subtype A; [2]) | pIC50 (human RSV subtype B) | pIC50 (bovine RSV) | pIC50 (human RSV subtype A; human respiratory syncytial virus, HEp-2, human RSV subtype A, concentration protecting 50% of cell monolayer from virus-induced cytopathic effect, HEp2 cells, 60 hours, read-out: IC50 RSV-A) | pIC50 (human RSV subtype A; human respiratory syncytial virus, Activity against human RSV subtype A (Table 2), values marked 2: protection achieved only 70-90% at highest concentrations tested, read-out: IC50) | pIC50 (human RSV subtype B; [3]) | pIC50 (ovine RSV; [3]) | pIC50 (bovine RSV; Bovine orthopneumovirus) | SMILES | CC75 (normal cells) [nM] | pIC50 (goat RSV) | pIC50 (ovine RSV)
 |  |  |  | 4.61 | 4.61 | 4.75 | 4.81 | 5.12 | NC(=O)c1ncn([C@@H]2O[C@H](CO)[C@@H](O)[C@H]2O)n1 [Ribavirin, 1-beta-D-ribofuranosyl-1H-1,2,4-triazole-3-carboxamide, reference compound] | 9400 | 5.48 | 
6.43 | 6.43 | 4.33 | 4.79 |  |  |  |  |  | Nc1nnnn1N=Cc1ccc(O)c(Cc2cc(C=Nn3nnnc3N)ccc2O)c1 [Example 8] | 9400 |  | 
7.05 | 7.05 | 5.72 | 5.77 |  |  |  |  |  | Nc1nnn(N=Cc2ccc(C(c3ccc(O)cc3)c3ccc(C=Nn4nnc(N)n4)cc3O)c(O)c2)n1 (stereo not drawn) [Example 5, 5,5′-Bis[2-(((5-amino-2H-tetrazolyl)imino)methyl)]-2,2′,4″-methylidynetrisphenol] | >50000 |  | 5.92
9.00 | 9.00 |  |  |  |  |  |  |  | Nc1nnnn1N=Cc1ccc(C(c2ccccc2)c2ccc(C=Nn3nnnc3N)cc2O)c(O)c1 (stereo not drawn) [Example 7, 5,5′-Bis[1-(((5-amino-1H-tetrazolyl)imino)methyl)]-2,2′-benzylidenebisphenol] | >6300 |  | 
